Assay results: patent US10779535B2, “Herbicidal compositions comprising 4-amino-3-chloro-5-fluoro-6-(4-chloro-2-fluoro-3-methoxyphenyl) pyridine-2-carboxylic acid or a derivative thereof and tembotrione and/or topramezone” (Dow AgroSciences LLC, priority 2017, dated 2020)

Assays:
Assay in all cases: Post-emergence foliar-applied herbicidal mixtures, greenhouse visual weed control
Type in all cases: in vivo
[1] = system: AMAPA (Amaranthus palmeri, Palmer amaranth)
Description: (§1) Seeds of the desired test plant species were planted in a potting media, Metro-mix 360, a peat based potting soil. Metro-mix consists of 35 to 45% specially processed coconutcoir pith, 10 to 20% horticultural grade vermiculite, 15 to 25% processed ash bark, 20 to 30% choice Canadian sphagnum peat moss and proprietary nutrients and other ingredients. When required to ensure good germination and healthy plants, a fungicide treatment and/or other chemical treatment was applied. The plants were grown for 8-16 days in a greenhouse with an approximate 14 h photoperiod which was maintained at about 29° C. during the day and 26° C. during the night. Nutrients (Peters Excel® 15-5-15 5-Ca 2-Mg and iron chelate) were applied in the irrigation solution as needed and water was added on a regular basis. Supplemental lighting was provided with overhead metal halide 1000-Watt lamps as necessary. The plants were sprayed when they reached the second through fourth true leaf stage.
(§2) Treatments consisted of the benzyl ester of 4-amino-3-chloro-5-fluoro-6-(4-chloro-2-fluoro-3-methoxy-phenyl)pyridine-2-carboxylic acid (II), formulated as an SC (suspension concentrate), GF-2978 containing 125.8 g ai/L of active ingredient, and various herbicidal components alone and in combination. The benzyl ester of formula (II) was applied on an active ingredient basis.
(§3) Other herbicidal components were applied on an active ingredient basis and included 4-hydroxyphenyl pyruvate dioxygenase (HPPD)-inhibiting herbicides tembotrione formulated as Laudis, an SC formulation containing 420 g ai/L of tembotrione, or topramezone formulated as Armezon, an SC formulation containing 335.8 g ai/L of topramezone. All treatments were applied with Prime Oil, (crop oil concentrate) at 1% v/v.
(§4) Treatment requirements were calculated based upon the rates being tested, the concentration of active ingredient or acid equivalent in the formulation, for a 30 ml volume based off of an application rate of 200 L/ha. Appropriate amounts of formulated product as calculated by the software package ARM8 (Gylling Data Management Inc.) were added to 60 ml glass vials and diluted with Indianapolis tap water and Prime Oil at 1% v/v. Treatments were applied with Generation III Research Track-Sprayer manufactured by DeVries Manufacturing in Hollandale, Minn., USA, located in building 306, room E1-483, at the Dow AgroSciences Global headquarters in Indianapolis, Ind. US. The track sprayer was calibrated to deliver 200 L/ha utilizing an 8003E even fan spray nozzle at 40 psi (276 kPa) at a speed of 2 mph (3.25 km/hr) and a spray height of 18 to 20 inches (46 to 50 cm) above average plant canopy height.
(§5) The treated plants and control plants were placed in a greenhouse as described above and watered by sub-irrigation to prevent wash-off of the test compounds. […], the condition of the test plants as compared with that of the untreated plants was determined visually and scored on a scale of 0 to 100 percent where 0 corresponds to no injury or growth inhibition and 100 corresponds to complete kill. The Colby method was used to determine the herbicidal effects expected from the mixtures.

[2] = system: ECHCG (Echinochloa crusgalli (L.) Beauv., barnyardgrass)
Description: as §1, §2, §3, §4, §5

[3] = system: IPOHE (Ipomoea hederacea (L.) Jacq., ivyleaf morningglory)
Description: as §1, §2, §3, §4, §5

[4] = system: AMARE (Amaranthus retroflexus, redroot pigweed)
Description: as §1, §2, §3, §4
The treated plants and control plants were placed in a greenhouse as described above and watered by sub-irrigation to prevent wash-off of the test compounds. […] the untreated plants was determined visually and scored on a scale of 0 to 100 percent where 0 corresponds to no injury or growth inhibition and 100 corresponds to complete kill. The Colby method was used to determine the herbicidal effects expected from the mixtures.

[5] = Compound II 0 gai/ha, Topramezone 3 gai/ha
[6] = Compound II 0 gai/ha, Topramezone 6 gai/ha
[7] = Compound II 0 gai/ha, Topramezone 24 gai/ha
[8] = Compound II 0 gai/ha, Topramezone 12 gai/ha
[9] = Compound II 0 gai/ha, Tembotrione 46 gai/ha
[10] = Compound II 2.5 gai/ha, Tembotrione 0 gai/ha
[11] = Compound II 2.5 gai/ha, Topramezone 0 gai/ha
[12] = Compound II 5 gai/ha, Topramezone 0 gai/ha
[13] = Compound II 7.5 gai/ha, Topramezone 0 gai/ha
[14] = Compound II 15 gai/ha, Topramezone 0 gai/ha

Cc1c(C(=O)c2cnn(C)c2O)ccc(S(C)(=O)=O)c1C1=NOCC1 [Topramezone, [3-(4,5-dihydro-3-isoxazolyl)-2-methyl-4-(methylsulfonyl)phenyl](5-hydroxy-1-methyl-1H-pyrazol-4-yl)methanone]
Visual Weed Control (%) - 12 DAA AMAPA Obs [1, 5]: 86.67%
Visual Weed Control (%) - 12 DAA AMAPA Obs [1, 6]: 75%
Visual Weed Control (%) - 5 DAA ECHCG Obs [2, 5]: 0.75%
Visual Weed Control (%) - 5 DAA ECHCG Obs [2, 6]: 6.25%
Visual Weed Control (%) - 5 DAA ECHCG Obs [2, 7]: 51.25%
Visual Weed Control (%) - 12 DAA ECHCG Obs [2, 5]: 0%
Visual Weed Control (%) - 12 DAA ECHCG Obs [2, 6]: 1.25%
Visual Weed Control (%) - 12 DAA ECHCG Obs [2, 8]: 36.25%
Visual Weed Control (%) - 5 DAA IPOHE Obs [3, 5]: 6.25%
Visual Weed Control (%) - 5 DAA IPOHE Obs [3, 6]: 6.25%
Visual Weed Control (%) - 5 DAA IPOHE Obs [3, 8]: 8.75%
Visual Weed Control (%) - 5 DAA IPOHE Obs [3, 7]: 33.25%
Visual Weed Control (%) - 5 DAA AMARE Obs [4, 7]: 50.75%
Visual Weed Control (%) - 12 DAA AMARE Obs [4, 6]: 52.5%
Visual Weed Control (%) - 12 DAA AMARE Obs [4, 8]: 77.5%

CS(=O)(=O)c1ccc(C(=O)C2C(=O)CCCC2=O)c(Cl)c1COCC(F)(F)F [Tembotrione, 2-[2-chloro-4-(methylsulfonyl)-3-[(2,2,2-trifluoroethoxy)methyl]benzoyl]-1,3-cyclohexanedione]
Visual Weed Control (%) - 12 DAA AMAPA Obs ([1]; Compound II 0 gai/ha, Tembotrione 5.75 gai/ha): 44.33%
Visual Weed Control (%) - 12 DAA AMAPA Obs ([1]; Compound II 0 gai/ha, Tembotrione 11.5 gai/ha): 50%
Visual Weed Control (%) - 12 DAA AMAPA Obs ([1]; Compound II 0 gai/ha, Tembotrione 23 gai/ha): 66%
Visual Weed Control (%) - 5 DAA ECHCG Obs [2, 9]: 57.5%
Visual Weed Control (%) - 12 DAA AMARE Obs [4, 9]: 43.75%

COc1c(Cl)ccc(-c2nc(C(=O)OCc3ccccc3)c(Cl)c(N)c2F)c1F [Compound II, benzyl 4-amino-3-chloro-6-(4-chloro-2-fluoro-3-methoxyphenyl)-5-fluoropyridine-2-carboxylate]
Visual Weed Control (%) - 12 DAA AMAPA Obs [1, 10]: 75%
Visual Weed Control (%) - 12 DAA AMAPA Obs [1, 11]: 75%
Visual Weed Control (%) - 12 DAA AMAPA Obs ([1]; Compound II 5 gai/ha, Tembotrione 0 gai/ha): 73.33%
Visual Weed Control (%) - 12 DAA AMAPA Obs [1, 12]: 73.33%
Visual Weed Control (%) - 12 DAA AMAPA Obs [1, 13]: 85%
Visual Weed Control (%) - 12 DAA AMAPA Obs ([1]; Compound II 15 gai/ha, Tembotrione 0 gai/ha): 80%
Visual Weed Control (%) - 12 DAA AMAPA Obs [1, 14]: 80%
Visual Weed Control (%) - 5 DAA ECHCG Obs [2, 10]: 22.5%
Visual Weed Control (%) - 5 DAA ECHCG Obs [2, 11]: 22.5%
Visual Weed Control (%) - 5 DAA ECHCG Obs [2, 12]: 53.75%
Visual Weed Control (%) - 5 DAA ECHCG Obs [2, 13]: 55%
Visual Weed Control (%) - 5 DAA ECHCG Obs [2, 14]: 65%
Visual Weed Control (%) - 12 DAA ECHCG Obs [2, 12]: 61.25%
Visual Weed Control (%) - 12 DAA ECHCG Obs [2, 13]: 70.75%
Visual Weed Control (%) - 5 DAA IPOHE Obs [3, 11]: 51.25%
Visual Weed Control (%) - 5 DAA IPOHE Obs [3, 12]: 62.5%
Visual Weed Control (%) - 5 DAA IPOHE Obs [3, 13]: 61.25%
Visual Weed Control (%) - 5 DAA IPOHE Obs [3, 14]: 55.75%
Visual Weed Control (%) - 5 DAA AMARE Obs [4, 14]: 73%
Visual Weed Control (%) - 12 DAA AMARE Obs [4, 10]: 61.25%
Visual Weed Control (%) - 12 DAA AMARE Obs [4, 11]: 61.25%
Visual Weed Control (%) - 12 DAA AMARE Obs [4, 12]: 65.75%
Visual Weed Control (%) - 12 DAA AMARE Obs ([4]; Compound II 7.5 gai/ha, Tembotrione 0 gai/ha): 75%
Visual Weed Control (%) - 12 DAA AMARE Obs [4, 13]: 75%
